Measured values from patent US8629328B2 (Monsanto Technology LLC, priority 2006, dated 2014).

Columns and labels:
[1] = test system: transgenic soybean plants with DMO-encoding polynucleotide (Events 1-4); experiment: Greenhouse, post-V3 applications of different auxin-like herbicides, visual % injury; format: in vivo; conditions: for tolerance of DMO polynucleotide containing soybean: post-V3 application
Experimental: (§1) This was carried out by applying various concentrations of commercially available formulations of other auxin-like herbicides such as 2,4-D (Helena, Collierville, Tenn.), MCPA (Agriliance, St. Paul, Minn.), triclopyr (GARLON 3A; Dow Elanco, Indianapolis, Ind.), clopyralid (STINGER; Dow Elanco, Indianapolis, Ind.), picloram (TORDON 22K; Dow Elanco, Indianapolis, Ind.), or Banvel or CLARITY (BASF, Raleigh, N.C.) to DMO containing plant tissues or plants.
(§2) Transgenic soybean plants were obtained by Agrobacterium-mediated transformation of soybean explants with a DMO-encoding polynucleotide as described above for the events designated Events 1-4. A non-transgenic line was used as a control.
(§3) Applications were made when plants had reached V-3 stage.
(§4) Data were collected using a palm top computer and analyzed using standard statistical methods. The results shown in Table 10 clearly indicate tolerance of transgenic soybean to other auxin-like herbicides such as 2,4-D and MCPA relative to the non-transgenic line.

[2] = test system: non-transgenic soybean plants; experiment: as above; format: in vivo
Experimental: as §1, §2, §3, §4

MARESTAIL (KY) Resistant = experiment: Control of marestail by dicamba or glyphosate, treated at rosette leaf stage; format: in vivo, Conyza canadensis; conditions: glyphosate formulation 2100 g/ha
Excerpt: (§5) Marestail is one of the major weeds in a crop field. Marestail is effectively controlled by glyphosate, but the development of methods for controlling this common weed with other herbicides is important to minimize opportunities for herbicide tolerance to develop.

MARESTAIL (CA) Resistant = experiment: as above; format: in vivo, Conyza canadensis; conditions: glyphosate formulation 2100 g/ha
Excerpt: as §5

Marestail Resistant (KY) = experiment: Dicamba, glyphosate and their combination on marestail; format: in vivo, Conyza canadensis; conditions: glyphosate formulation 200 g/ha

Compound	% injury at 21 DAT ([1]; Event 1, 280 g ae/ha post-V3) [%]	% injury at 21 DAT ([1]; Event 1, 561 g ae/ha post-V3) [%]	% injury at 21 DAT ([1]; Event 1, 1120 g ae/ha post-V3) [%]	% injury at 21 DAT ([1]; Event 2, 280 g ae/ha post-V3) [%]	% injury at 21 DAT ([1]; Event 2, 561 g ae/ha post-V3) [%]	% injury at 21 DAT ([1]; Event 2, 1120 g ae/ha post-V3) [%]	% injury at 21 DAT ([1]; Event 3, 280 g ae/ha post-V3) [%]	% injury at 21 DAT ([1]; Event 3, 561 g ae/ha post-V3) [%]	% injury at 21 DAT ([1]; Event 3, 1120 g ae/ha post-V3) [%]	% injury at 21 DAT ([1]; Event 4, 280 g ae/ha post-V3) [%]	% injury at 21 DAT ([1]; Event 4, 561 g ae/ha post-V3) [%]	% injury at 21 DAT ([1]; Event 4, 1120 g ae/ha post-V3) [%]	tolerance of DMO polynucleotide containing soybean [1]	% injury at 21 DAT ([2]; 280 g ae/ha post-V3) [%]	% injury at 21 DAT ([2]; 561 g ae/ha post-V3) [%]	% injury at 21 DAT ([2]; 1120 g ae/ha post-V3) [%]	% injury at 14 DAT ([1]; Event 1, 280 g ae/ha post-V3) [%]	% injury at 14 DAT ([1]; Event 1, 561 g ae/ha post-V3) [%]	% injury at 14 DAT ([1]; Event 1, 1120 g ae/ha post-V3) [%]	% injury at 14 DAT ([1]; Event 2, 280 g ae/ha post-V3) [%]	also measured
O=C(O)COc1ccc(Cl)cc1Cl [2,4-D, (2,4-dichlorophenoxy)acetic acid]	58.3	75.0	100.0	64.2	94.7	100.0	40.0	85.0	100.0	45.8	84.2	100.0	tolerant to low levels	86.8	100.0	100.0					
O=C(O)c1nc(Cl)ccc1Cl [Clopyralid, 3,6-dichloro-2-pyridinecarboxylic acid]																	99.2	100.0	100.0	98.2	% injury at 14 DAT ([1]; Event 2, 561 g ae/ha post-V3): 99.7%; % injury at 14 DAT ([1]; Event 2, 1120 g ae/ha post-V3): 100.0%; % injury at 14 DAT ([1]; Event 3, 280 g ae/ha post-V3): 99.3%; % injury at 14 DAT ([1]; Event 3, 561 g ae/ha post-V3): 100.0%; % injury at 14 DAT ([1]; Event 3, 1120 g ae/ha post-V3): 100.0%; % injury at 14 DAT ([1]; Event 4, 280 g ae/ha post-V3): 99.7%; % injury at 14 DAT ([1]; Event 4, 561 g ae/ha post-V3): 100.0%; % injury at 14 DAT ([1]; Event 4, 1120 g ae/ha post-V3): 100.0%; % injury at 14 DAT ([2]; 280 g ae/ha post-V3): 99.3%; % injury at 14 DAT ([2]; 561 g ae/ha post-V3): 100.0%; % injury at 14 DAT ([2]; 1120 g ae/ha post-V3): 100.0%
Cc1cc(Cl)ccc1OCC(=O)O [MCPA, (4-chloro-2-methylphenoxy)acetic acid]	72.5	99.3	100.0	55.0	95.0	99.7	55.0	95.8	100.0	88.3	98.8	100.0	tolerant to low levels	93.0	98.3	100.0					
Nc1c(Cl)c(Cl)nc(C(=O)O)c1Cl [Picloram, 4-amino-3,5,6-trichloro-2-pyridinecarboxylic acid]																	99.7	100.0	100.0	99.3	% injury at 14 DAT ([1]; Event 2, 561 g ae/ha post-V3): 100.0%; % injury at 14 DAT ([1]; Event 2, 1120 g ae/ha post-V3): 100.0%; % injury at 14 DAT ([1]; Event 3, 280 g ae/ha post-V3): 99.3%; % injury at 14 DAT ([1]; Event 3, 561 g ae/ha post-V3): 99.7%; % injury at 14 DAT ([1]; Event 3, 1120 g ae/ha post-V3): 100.0%; % injury at 14 DAT ([1]; Event 4, 280 g ae/ha post-V3): 99.3%; % injury at 14 DAT ([1]; Event 4, 561 g ae/ha post-V3): 100.0%; % injury at 14 DAT ([1]; Event 4, 1120 g ae/ha post-V3): 100.0%; % injury at 14 DAT ([2]; 280 g ae/ha post-V3): 99.3%; % injury at 14 DAT ([2]; 561 g ae/ha post-V3): 100.0%; % injury at 14 DAT ([2]; 1120 g ae/ha post-V3): 100.0%
O=C(O)CNCP(=O)(O)O [glyphosate, N-phosphonomethylglycine]																					% Injury (21 DAT) (MARESTAIL (KY) Resistant): about 91%; % Injury (21 DAT) (MARESTAIL (CA) Resistant): about 77%; % Injury (18 DAT) (Marestail Resistant (KY)): 6%
